# “And” between values parts separate entries of the source, which are not always exact repeats. Equal values may be shown once. Results filed as inconclusive are left out.
# System: BDF1 mice, M5076 sarcoma s.c., survival/tumor T/C
# Experiment: NCI In Vivo Anticancer Drug Screen. Data for tumor model Sarcoma M5076 (subcutaneous) in B6D2F1 (BDF1) mice
# Method: The antitumor activity of compounds was measured in mice bearing transplantable tumors. Survival or tumor size were measured and the results are expressed as the measurement made in the treated group (T) divided by the measurement made in the vehicle treated control group (C). The tumor model used in this assay is Sarcoma M5076 (subcutaneous) in B6D2F1 (BDF1) mice
# [1] = endpoint: median survival time, dose: 50.0 mg/kg/injection, schedule: Q01DX009 (ip), vehicle: saline with Tween-80, higher = longer survival
# [2] = endpoint: median survival time, dose: 100.0 mg/kg/injection, schedule: Q01DX009 (ip), vehicle: saline with Tween-80, higher = longer survival
# [3] = endpoint: median survival time, dose: 200.0 mg/kg/injection, schedule: Q01DX009 (ip), vehicle: saline with Tween-80, higher = longer survival
# [4] = endpoint: median tumor weight (est.), dose: 50.0 mg/kg/injection, schedule: Q01DX009 (ip), vehicle: saline with Tween-80, higher = larger tumour
# [5] = endpoint: median tumor weight (est.), dose: 100.0 mg/kg/injection, schedule: Q01DX009 (ip), vehicle: saline with Tween-80, higher = larger tumour
# [6] = endpoint: median tumor weight (est.), dose: 200.0 mg/kg/injection, schedule: Q01DX009 (ip), vehicle: saline with Tween-80, higher = larger tumour
compound,measurement,setting,value
Nc1nc([Se])c2ncn(C3OC(CO)C(O)C3O)c2n1 (centres undefined),T/C,"endpoint: median survival time, dose: 4.0 mg/kg/injection, schedule: Q01DX009 (ip), vehicle: saline, higher = longer survival",108 % of control
same,T/C,"endpoint: median survival time, dose: 8.0 mg/kg/injection, schedule: Q01DX009 (ip), vehicle: saline, higher = longer survival",118 % of control
same,T/C,"endpoint: median survival time, dose: 8.0 mg/kg/injection, schedule: Q01DX009 (ip), vehicle: suspension in saline, higher = longer survival",118 % of control
same,T/C,"endpoint: median survival time, dose: 16.0 mg/kg/injection, schedule: Q01DX009 (ip), vehicle: saline, higher = longer survival",119 % of control
same,T/C,"endpoint: median survival time, dose: 16.0 mg/kg/injection, schedule: Q01DX009 (ip), vehicle: suspension in saline, higher = longer survival",119 % of control
same,T/C,"endpoint: median tumor weight (est.), dose: 4.0 mg/kg/injection, schedule: Q01DX009 (ip), vehicle: saline, higher = larger tumour",64 % of control
same,T/C,"endpoint: median tumor weight (est.), dose: 8.0 mg/kg/injection, schedule: Q01DX009 (ip), vehicle: saline, higher = larger tumour",33 % of control
same,T/C,"endpoint: median tumor weight (est.), dose: 8.0 mg/kg/injection, schedule: Q01DX009 (ip), vehicle: suspension in saline, higher = larger tumour",24 % of control
same,T/C,"endpoint: median tumor weight (est.), dose: 16.0 mg/kg/injection, schedule: Q01DX009 (ip), vehicle: saline, higher = larger tumour",8 % of control
same,T/C,"endpoint: median tumor weight (est.), dose: 16.0 mg/kg/injection, schedule: Q01DX009 (ip), vehicle: suspension in saline, higher = larger tumour",6 % of control
Cc1ccc(/C=C2\SC(=S)N(C3CC3)C2=O)cc1,T/C,[1],103 % of control
same,T/C,[2],94 % of control
same,T/C,[3],98 % of control
same,T/C,[4],105 % of control
same,T/C,[5],80 % of control
same,T/C,[6],93 % of control
NCCCNCCSP(=O)(O)O,T/C,"endpoint: median survival time, dose: 25.0 mg/kg/injection, schedule: Q02DX011 (ip), vehicle: saline, higher = longer survival",116 % of control
same,T/C,"endpoint: median survival time, dose: 50.0 mg/kg/injection, schedule: Q02DX011 (ip), vehicle: saline, higher = longer survival",106 % of control
same,T/C,"endpoint: median survival time, dose: 100.0 mg/kg/injection, schedule: Q02DX011 (ip), vehicle: saline, higher = longer survival",96 % of control
CC1(C)OC(C)(C)c2c1nnc(-c1ccccc1)[n+]2[O-],T/C,[1],93 % of control
same,T/C,[2],105 % of control
same,T/C,[3],103 % of control
same,T/C,[5],84 % of control
same,T/C,[6],60 % of control
COC(=O)[C@@]12OC[C@]34[C@H]([C@@H](O)[C@@H]1O)[C@@]1(C)CC(=O)C(O)=C(C)[C@@H]1C[C@H]3OC(=O)[C@H](OC(=O)/C=C(\C)C(C)C)[C@@H]24,T/C,"endpoint: mean tumor weight, dose: 0.5 mg/kg/injection, schedule: Q02DX011 (ip), vehicle: saline with Tween-80, higher = larger tumour",114 % of control
same,T/C,"endpoint: mean tumor weight, dose: 1.0 mg/kg/injection, schedule: Q02DX011 (ip), vehicle: saline with Tween-80, higher = larger tumour",94 % of control
same,T/C,"endpoint: mean tumor weight, dose: 2.0 mg/kg/injection, schedule: Q02DX011 (ip), vehicle: saline with Tween-80, higher = larger tumour",26 % of control
O=[N+]([O-])c1nccn1CC(O)CO (centres undefined),T/C,"endpoint: median survival time, dose: 1776.0 mg/kg/injection, schedule: Q01DX001 (ip), vehicle: saline, higher = longer survival",101 % of control and 102 % of control
same,T/C,"endpoint: median survival time, dose: 2500.0 mg/kg/injection, schedule: Q01DX001 (ip), vehicle: saline, higher = longer survival",102 % of control (2×) and 92 % of control
COC1CC2C=C(C)/C=C/C=C/C(=O)NC(c3ccccc3)C/C=C/CCC(O)CC(=O)C2=C1O (centres undefined),T/C,"endpoint: median survival time, dose: 1.0 mg/kg/injection, schedule: Q01DX009 (ip), vehicle: Klucel (hydroxypropylcellulose) (HPC), higher = longer survival",100 % of control
same,T/C,"endpoint: median survival time, dose: 2.0 mg/kg/injection, schedule: Q01DX009 (ip), vehicle: Klucel (hydroxypropylcellulose) (HPC), higher = longer survival",100 % of control
same,T/C,"endpoint: median survival time, dose: 4.0 mg/kg/injection, schedule: Q01DX009 (ip), vehicle: Klucel (hydroxypropylcellulose) (HPC), higher = longer survival",100 % of control
same,T/C,"endpoint: median tumor weight (est.), dose: 1.0 mg/kg/injection, schedule: Q01DX009 (ip), vehicle: Klucel (hydroxypropylcellulose) (HPC), higher = larger tumour",77 % of control
same,T/C,"endpoint: median tumor weight (est.), dose: 2.0 mg/kg/injection, schedule: Q01DX009 (ip), vehicle: Klucel (hydroxypropylcellulose) (HPC), higher = larger tumour",109 % of control
same,T/C,"endpoint: median tumor weight (est.), dose: 4.0 mg/kg/injection, schedule: Q01DX009 (ip), vehicle: Klucel (hydroxypropylcellulose) (HPC), higher = larger tumour",82 % of control
O=NN(CCCl)C(=O)NC1CCCCC1,T/C,"endpoint: median survival time, dose: 2.0 mg/kg/injection, schedule: Q04DX006 (ip), vehicle: saline with Tween-80, higher = longer survival",117 % of control
same,T/C,"endpoint: median survival time, dose: 3.0 mg/kg/injection, schedule: Q01DX009 (ip), vehicle: Klucel (hydroxypropylcellulose) (HPC), higher = longer survival",168 % of control
same,T/C,"endpoint: median survival time, dose: 4.0 mg/kg/injection, schedule: Q02DX033 (ip), vehicle: saline with Tween-80, higher = longer survival",250 % of control
same,T/C,"endpoint: median survival time, dose: 4.0 mg/kg/injection, schedule: Q04DX006 (ip), vehicle: saline with Tween-80, higher = longer survival",120 % of control
same,T/C,"endpoint: median survival time, dose: 6.0 mg/kg/injection, schedule: Q01DX009 (ip), vehicle: Klucel (hydroxypropylcellulose) (HPC), higher = longer survival",215 % of control
same,T/C,"endpoint: median survival time, dose: 8.0 mg/kg/injection, schedule: Q02DX033 (ip), vehicle: saline with Tween-80, higher = longer survival",255 % of control
same,T/C,"endpoint: median survival time, dose: 8.0 mg/kg/injection, schedule: Q04DX006 (ip), vehicle: saline with Tween-80, higher = longer survival",183 % of control
same,T/C,"endpoint: median survival time, dose: 12.0 mg/kg/injection, schedule: Q01DX009 (ip), vehicle: Klucel (hydroxypropylcellulose) (HPC), higher = longer survival",215 % of control
same,T/C,"endpoint: median survival time, dose: 16.0 mg/kg/injection, schedule: Q04DX006 (ip), vehicle: saline with Tween-80, higher = longer survival",241 % of control
same,T/C,"endpoint: median tumor weight (est.), dose: 1.5 mg/kg/injection, schedule: Q01DX009 (ip), vehicle: Klucel (hydroxypropylcellulose) (HPC), higher = larger tumour",10 % of control
CCCCCCC(=O)O[C@H]1CC[C@H]2[C@@H]3CCC4=CC(=O)CC[C@]4(C)[C@H]3CC[C@]12C,T/C,"endpoint: mean tumor weight, dose: 15.0 mg/kg/injection, schedule: Q02DX011 (ip), vehicle: Klucel (hydroxypropylcellulose) (HPC), higher = larger tumour",43 % of control
same,T/C,"endpoint: mean tumor weight, dose: 30.0 mg/kg/injection, schedule: Q02DX011 (ip), vehicle: Klucel (hydroxypropylcellulose) (HPC), higher = larger tumour",68 % of control
same,T/C,"endpoint: median tumor weight (est.), dose: 7.5 mg/kg/injection, schedule: Q02DX011 (ip), vehicle: Klucel (hydroxypropylcellulose) (HPC), higher = larger tumour",124 % of control
same,T/C,"endpoint: median tumor weight (est.), dose: 15.0 mg/kg/injection, schedule: Q02DX011 (ip), vehicle: Klucel (hydroxypropylcellulose) (HPC), higher = larger tumour",21 % of control
same,T/C,"endpoint: median tumor weight (est.), dose: 30.0 mg/kg/injection, schedule: Q02DX011 (ip), vehicle: Klucel (hydroxypropylcellulose) (HPC), higher = larger tumour",52 % of control
CC(=O)Nc1ccc(S(=O)(=O)NNC(=O)C(=O)Nc2cccc(Cl)c2)cc1,T/C,[1],105 % of control
same,T/C,[2],98 % of control
same,T/C,[3],86 % of control
same,T/C,[4],113 % of control
same,T/C,[5],108 % of control
same,T/C,[6],92 % of control
COC1=C(C)C(=O)C2=C(C1=O)C(CO)N1C(C#N)C3CC4C(C1C2N1CCOC41)N3C (centres undefined),T/C,"endpoint: median survival time, dose: 0.06 mg/kg/injection, schedule: Q01DX009 (ip), vehicle: saline + alcohol, higher = longer survival",100 % of control
same,T/C,"endpoint: median survival time, dose: 0.13 mg/kg/injection, schedule: Q01DX009 (ip), vehicle: saline + alcohol, higher = longer survival",96 % of control
same,T/C,"endpoint: median survival time, dose: 0.25 mg/kg/injection, schedule: Q01DX009 (ip), vehicle: saline + alcohol, higher = longer survival",91 % of control
same,T/C,"endpoint: median survival time, dose: 0.5 mg/kg/injection, schedule: Q01DX009 (ip), vehicle: saline + alcohol, higher = longer survival",106 % of control
same,T/C,"endpoint: median tumor weight (est.), dose: 0.06 mg/kg/injection, schedule: Q01DX009 (ip), vehicle: saline + alcohol, higher = larger tumour",103 % of control
same,T/C,"endpoint: median tumor weight (est.), dose: 0.13 mg/kg/injection, schedule: Q01DX009 (ip), vehicle: saline + alcohol, higher = larger tumour",153 % of control
same,T/C,"endpoint: median tumor weight (est.), dose: 0.25 mg/kg/injection, schedule: Q01DX009 (ip), vehicle: saline + alcohol, higher = larger tumour",95 % of control
same,T/C,"endpoint: median tumor weight (est.), dose: 0.5 mg/kg/injection, schedule: Q01DX009 (ip), vehicle: saline + alcohol, higher = larger tumour",80 % of control
CO[C@H](C(=O)[C@@H](O)[C@@H](C)O)[C@@H]1Cc2cc3cc(OC4CC(OC5CC(O)C(O)C(C)O5)C(O)C(C)O4)c(C)c(O)c3c(O)c2C(=O)[C@H]1OC1CC(OC2CC(OC3CC(C)(O)C(O)C(C)O3)C(O)C(C)O2)C(O)C(C)O1 (some centres undefined),T/C,"endpoint: mean tumor weight, dose: 1.25 micrograms/kg/injection, schedule: Q02DX011 (ip), vehicle: water, higher = larger tumour",151 % of control
same,T/C,"endpoint: mean tumor weight, dose: 5.0 micrograms/kg/injection, schedule: Q02DX011 (ip), vehicle: water, higher = larger tumour",168 % of control
same,T/C,"endpoint: median tumor weight (est.), dose: 0.01 mg/kg/injection, schedule: Q02DX011 (ip), vehicle: water, higher = larger tumour",99 % of control
same,T/C,"endpoint: median tumor weight (est.), dose: 0.05 mg/kg/injection, schedule: Q02DX011 (ip), vehicle: water, higher = larger tumour",154 % of control
CC1(C)OC(C)(C)c2c1nnc(-c1ccccc1[N+](=O)[O-])[n+]2[O-],T/C,[1],108 % of control
same,T/C,[2],99 % of control
same,T/C,[3],103 % of control
same,T/C,[4],70 % of control
same,T/C,[5],110 % of control
same,T/C,[6],67 % of control

# Source: PubChem BioAssay AID288 (DTP/NCI, 2004)
